Measurements from paper PMC11939470, “The Cyclic Antimicrobial Peptide C-LR18 Has Enhanced Antibacterial Activity, Improved Stability, and a Longer Half-Life Compared to the Original Peptide” (Antibiotics, 2025).
Where a SMILES comes first, the peptide text is derived from it. Bridges are numbered along the chain shown (N, C = ends).

How the values were obtained:
KM mice = assay: Acute toxicity (LD50) in mice, tail vein; assay type: in vivo; settings: for Number of Animal Deaths (r) / Survival Rate (q): 10 mice
Method: The health status of mice was observed, and the mortality data of 5 groups of mice were recorded. The LD50 and 95% confidence limit of C-LR18 for mice were calculated according to the following formula:LD50 = log − 1[Xm − i(ΣP − 0.5)](3) (4) SX50=i∑pq/n 95% Confidence limits of LD50 = log − 1(log − 1LD50 ± 1.96SX50)(5)
Xm: dose pair value of maximum dose group, i: the difference between the dose pairs of two adjacent groups, P: animal mortality in each group, ΣP: the sum of the mortality of each group of animals, n: number of animals per group, q: survival rate per dose group, […].

E. coli ATCC25922 [1] = assay: Stability in artificial gastric and intestinal fluid, read out by MIC assay; assay type: in vitro ADME
Method: (§1) The MIC test was performed using the method recommended by the National Committee for Clinical Laboratory Standards (NCCLS) Standards and Guidelines, and the method was modified according to the characteristics of antimicrobial peptides. The bacteria were cultured at 37 °C for 16 h, and the microbial suspension was diluted to a final concentration of 5 × 10^5 CFU/mL. Then, 50 µL of bacterial solution was mixed with 50 µL of MHB containing different concentrations peptides (0.5–256 µM) in a 96-well plate. […] The assays were performed three times. Geometric mean MIC represents the average MIC of the peptide against all the tested strains.
The stability of LR18 and C-LR18 in protease, serum, and gastrointestinal conditions was determined using MIC assay, as described previously.
The stability in gastrointestinal conditions was also determined. The peptides were diluted in artificial gastric fluid and artificial intestinal fluid, digested in water bath at 37 °C for 0.5 and 1 h, and then inactivated in water bath at 60 °C for 30 min. Then, the PH of the solution was adjusted to 7.0 with 10% Na2CO3. Subsequent steps were the same as for the MIC assay. The assays were performed three times.

E. coli ATCC25922 [2] = assay: Impact of temperature and pH on MIC; assay type: physicochemical; settings: after 100 °C for 30 min, acid treatment (pH4) 1 h, alkali treatment (pH10) 1 h
Method: as §1
The impact of temperature on peptides’ antimicrobial activity was also tested.

E. coli Y1 [3] = assay: Bacterial load in liver and spleen of mice; assay type: in vivo; settings: 7.5 mg/kg tail vein 1 h after ip E. coli Y1, one mouse every 24 h
Method: One hour after the mice were intraperitoneally injected with 0.5 mL of E. coli Y1 suspension (10^9 CFU/mL), C-LR18 was injected into the mice at a dose of 7.5 mg/kg through the tail vein. The normal saline group was used as negative control, and the polymyxin B group (1 mg/kg) was used as positive control. After that, one mouse was taken every 24 h, sacrificed via cervical dislocation, and the liver and spleen were removed, weighed, and added to PBS buffer for grinding at 3000 r/min for 2 min. The abrasive solution was diluted with sterile PBS (1:10,000), and 0.1 mL diluent was evenly coated in solid MH medium and cultured at 37 °C overnight. Colony counting was performed on the samples, and the bacterial colonization amount in liver and spleen was calculated.

[4] = tested on: genomic DNA of E. coli ATCC25922; assay: DNA binding assay (gel retardation); settings: 100 ng genomic DNA, 1–512 µM peptide, 37 °C 60 min, 0.8% agarose gel
Method: The DNA binding test was performed according to gel retardation experiments described previously. Firstly, genomic DNA was extracted from E. coli ATCC25922 using a DNA extraction kit. A total of 100 ng of genomic DNA was mixed with 1–512 µM peptide in a binding buffer (50 µg/mL of BSA, 1 mM of ethylene diamine tetra-acetic acid, 20 mM of KCl, 10 mM of Tris-HCl (pH = 8.0), 5% glycerol, and 1 mM of dithiothreitol) and incubated at 37 °C for 60 min. Subsequently, the samples were examined using 0.8% agarose gel electrophoresis. Observation and photography were performed in the UVP gel imaging system, and the electrophoresis mobility was analyzed.

E. coli Y1 [5] = assay: Therapeutic experiment, survival of E. coli-infected mice; assay type: in vivo, KM mice; settings: within 72 h, 10 mice per group
Method: The mice (female, 18–21 g) were randomly divided into 6 groups, with PBS dilution as the control group. A total of 1–5 groups were injected intraperitoneally with 0.5 mL of E. coli solution containing […] CFU/mL, respectively. After inoculation, the mice were observed continuously for 5 days, and the mortality rate was recorded. The minimum dose (LD 100) at which all mice die within 5 days was used as the optimal dose for the bacterial attack in this experiment.
In order to further evaluate the therapeutic potential of antimicrobial peptide C-LR18, a mouse model infected with E. coli was constructed in this study. The Km mice (female, 18–21 g) were maintained at constant room temperature [(25 ± 2) °C] with free access to food and water for 48 h. […] A total of 0.5 mL of E. coli Y1 suspension (10^9 CFU/m L) was intraperitoneally injected into each group of mice. One hour after challenge, different doses of C-LR18 (2.5 mg/kg, 5 mg/kg, and 7.5 mg/kg) and polymyxin B (5 mg/kg) were intraperitoneally injected into mice. The group injected with the same dose of physiological water was the control group.

CC(C)C[C@@H]1NC(=O)[C@H](CCCNC(=N)N)NC(=O)[C@H](CCCNC(=N)N)NC(=O)[C@H](CC(C)C)NC(=O)[C@H](CC(C)C)NC(=O)[C@H](CCCNC(=N)N)NC(=O)[C@H](CC(C)C)NC(=O)[C@@H]2CCCN2C(=O)[C@H](CCCNC(=N)N)NC(=O)[C@H](CCCNC(=N)N)NC(=O)[C@@H]2CCCN2C(=O)[C@H](CC(C)C)NC(=O)[C@H](CCCNC(=N)N)NC(=O)[C@H](CC(C)C)NC(=O)[C@H](CC(C)C)NC(=O)[C@H](CCCNC(=N)N)NC(=O)[C@H](CCCNC(=N)N)NC(=O)[C@H](CC(C)C)NC(=O)[C@@H](N)CSSC[C@@H](C(=O)O)NC1=O [C-LR18] (H-CLRRLLRLPRRPLRLLRRLC-OH; disulfide 1-20; N-terminus and C-terminus assumed)
Number of Animal Deaths (r) (KM mice; 36 mg/kg tail vein): 0
Survival Rate (q) (KM mice; 36 mg/kg tail vein): 1
Number of Animal Deaths (r) (KM mice; 44 mg/kg tail vein): 2
Survival Rate (q) (KM mice; 44 mg/kg tail vein): 0.8
Number of Animal Deaths (r) (KM mice; 53 mg/kg tail vein): 5
Survival Rate (q) (KM mice; 53 mg/kg tail vein): 0.5
Number of Animal Deaths (r) (KM mice; 64 mg/kg tail vein): 7
Survival Rate (q) (KM mice; 64 mg/kg tail vein): 0.3
Number of Animal Deaths (r) (KM mice; 77 mg/kg tail vein): 10
Survival Rate (q) (KM mice; 77 mg/kg tail vein): 0
95% confidence limit of LD50 (KM mice; Kunming mice, tail vein): 28.0 to 50.1 mg/kg
increase of MIC (E. coli ATCC25922 [1]; artificial gastric fluid 30 min): 8 times
increase of MIC (E. coli ATCC25922 [1]; artificial intestinal fluid 30 min): 4 times
increase of MIC (E. coli ATCC25922 [1]; artificial intestinal fluid 60 min): 16 times
expansion of MIC (E. coli ATCC25922 [2]): 2 times
bacterial colonization in liver and spleen (E. coli Y1 [3]): significantly less than that in the negative control group
concentration exhibiting DNA-binding ability [4]: 64 µM
survival rate of mice (E. coli Y1 [5]; 2.5 mg/kg ip 1 h after ip 0.5 mL E. coli Y1 10^9 CFU/mL): 20%
survival rate of mice (E. coli Y1 [5]; 5 mg/kg ip 1 h after ip 0.5 mL E. coli Y1 10^9 CFU/mL): 40%
survival rate of mice (E. coli Y1 [5]; 7.5 mg/kg ip 1 h after ip 0.5 mL E. coli Y1 10^9 CFU/mL): 60%
